Reference: patent US8841233B2, “Herbicidal compositions comprising 4-amino-3-chloro-5-fluoro-6-(4-chloro-2-fluoro-3-methoxyphenyl) pyridine-2-carboxylic acid or a derivative thereof and 4-hydroxyphenyl-pyruvate dioxygenase (HPPD) inhibitors” (Dow Agrosciences LLC, priority 2012, dated 2014)

Assays:
ECHCG [1] = experiment: Post-emergence foliar-applied weed control, greenhouse (Example I); type: in vivo, Echinochloa crusgalli (L.) Beauv.
From the text: (§1) Evaluation of Post-emergence Foliar-Applied Herbicidal Mixtures for Weed Control in Direct Seeded Rice
(§2) Seeds or nutlets of the desired test plant species were planted in a soil matrix prepared by mixing a loam or sandy loam soil (e.g., 28.6 percent silt, 18.8 percent clay, and 52.6 percent sand, with a pH of about 5.8 and an organic matter content of about 1.8 percent) and calcareous grit in an 80 to 20 ratio. The soil matrix was contained in plastic pots with a volume of 1 quart and a surface area of 83.6 square centimeters (cm^2). When required to ensure good germination and healthy plants, a fungicide treatment and/or other chemical or physical treatment was applied. The plants were grown for 8-22 days in a greenhouse with an approximate 14 h photoperiod which was maintained at about 29° C. during the day and 26° C. during the night. Nutrients (Peters Excel® 15-5-15 5-Ca 2-Mg and iron chelate) were applied in the irrigation solution as needed and water was added on a regular basis. Supplemental lighting was provided with overhead metal halide 1000-Watt lamps as necessary. The plants were employed for testing when they reached the first through fourth true leaf stage.
(§3) Treatments consisted of the acid or esters of 4-amino-3-chloro-5-fluoro-6-(4-chloro-2-fluoro-3-methoxy-phenyl)pyridine-2-carboxylic acid (Compound A), each formulated as an SC (suspension concentrate), and various herbicidal components alone and in combination. Forms of Compound A were applied on an acid equivalent basis.
(§4) Other herbicidal components were applied on an active ingredient basis and included 4-hydroxyphenyl pyruvate dioxygenase (HPPD)-inhibiting herbicides mesotrione formulated as Callisto®, sulcotrione formulated as Mikado®, pyrazolynate formulated as Sunbird® 10% GR, and benzobicyclon formulated as Benzobicyclon 3.5%.
(§5) Treatment requirements were calculated based upon the rates being tested, the concentration of active ingredient or acid equivalent in the formulation, and a 12 mL application volume at a rate of 187 L/ha.
(§6) For treatments comprised of formulated compounds, measured amounts of compounds were placed individually in 25 mL glass vials and diluted in a volume of 1.25% (v/v) Agri-Dex® crop oil concentrated to obtain 12× stock solutions. […] Application solutions were prepared by adding an appropriate amount of each stock solution (e.g., 1 mL) and diluted to the appropriate final concentrations with the addition of 10 mL of an aqueous mixture of 1.25% (v/v) crop oil concentrate so that the final spray solutions contained 1.25+/−0.05% (v/v) crop oil concentrate.
(§7) For treatments comprised of formulated and technical compounds, weighed amounts of the technical materials were placed individually in 25 mL glass vials and dissolved in a volume of 97:3 v/v acetone/DMSO to obtain 12× stock solutions, and measured amounts of the formulated compounds were placed individually in 25 mL glass vials and diluted in a volume of 1.5% (v/v) crop oil concentrate or water to obtain 12× stock solutions. […] Application solutions were prepared by adding an appropriate amount of each stock solution (e.g., 1 mL) and diluted to the appropriate final concentrations with the addition of an appropriate amount of an aqueous mixture of 1.5% (v/v) crop oil concentrate so that the final spray solutions contained 1.25% (v/v) crop oil concentrate. As required, additional water and/or 97:3 v/v acetone/DMSO was added to individual application solutions so that the final acetone and DMSO concentrations of the application solutions being compared were 8.1% and 0.25%, respectively.
(§8) All stock solutions and applications solutions were visually inspected for compound compatibility prior to application. Spray solutions were applied to the plant material with an overhead Mandel track sprayer equipped with a 8002E nozzles calibrated to deliver 187 L/ha over an application area of 0.503 m^2 at a spray height of 18 to 20 inches (46 to 50 cm) above average plant canopy height. […]

LEFCH [2] = experiment: as above; type: in vivo, Leptochloa chinensis (L.) Nees; settings: 150 gai/ha
From the text: as §1
as §2, with “stage. […]” for “stage.”
as §5
For treatments comprised of formulated compounds, measured amounts of compounds were placed individually in 25 mL glass vials and diluted in a volume of 1.25% (v/v) Agri-Dex® crop oil concentrated to obtain 12× stock solutions. […]
For treatments comprised of formulated and technical compounds, weighed amounts of the technical materials were placed individually in 25 mL glass vials and dissolved in a volume of 97:3 v/v acetone/DMSO to obtain 12× stock solutions, and measured amounts of the formulated compounds were placed individually in 25 mL glass vials and diluted in a volume of 1.5% (v/v) crop oil concentrate or water to obtain 12× stock solutions. […]

SCPMA = experiment: In-water applied weed control, transplanted paddy rice, greenhouse (Example II); type: in vivo; settings: 37.5 gai/ha
Protocol: (§9) Evaluation of in-Water Applied Herbicidal Mixtures for Weed Control in Transplanted Paddy Rice
(§10) Weed seeds or nutlets of the desired test plant species were planted in puddled soil (mud) prepared by mixing a shredded, non-sterilized mineral soil (50.5 percent silt, 25.5 percent clay, and 24 percent sand, with a pH of about 7.6 and an organic matter content of about 2.9 percent) and water at a 1:1 volumetric ratio. The prepared mud was dispensed in 365 mL aliquots into 16-ounce (oz.) non-perforated plastic pots with a surface area of 86.59 square centimeters (cm^2) leaving a headspace of 3 centimeters (cm) in each pot. Mud was allowed to dry overnight prior to planting or transplanting. Rice seeds were planted in Sun Gro MetroMix® 306 planting mixture, which typically has a pH of 6.0 to 6.8 and an organic matter content of about 30 percent, in plastic plug trays. Seedlings at the second or third leaf stage of growth were transplanted into 840 mL of mud contained in 32-oz. non-perforated plastic pots with a surface area of 86.59 cm^2 4 days prior to herbicide application. The paddy was created by filling the headspace of the pots with 2.5 to 3 cm of water. When required to ensure good germination and healthy plants, a fungicide treatment and/or other chemical or physical treatment was applied. The plants were grown for 4-22 days in a greenhouse with an approximate 14 h photoperiod which was maintained at about 29′C during the day and 26° C. during the night. Nutrients were added as Osmocote® (19:6:12, N:P:K+ minor nutrients) at 2 g per 16-oz. pot and 4 g per 32-oz. pot. Water was added on a regular basis to maintain the paddy flood, and supplemental lighting was provided with overhead metal halide 1000-Watt lamps as necessary. The plants were employed for testing when they reached the first through fourth true leaf stage.
as §3, with “(compound A)” for “(Compound A),”, “concentrate)” for “concentrate),”, “compound” for “Compound”
as §4, with “3.5% or technical material.” for “3.5%.”
(§11) Treatment requirements for each compound or herbicidal component were calculated based upon the rates being tested, the concentration of active ingredient or acid equivalent in the formulation, an application volume of 2 mL per component per pot, and an application area of 86.59 cm^2 per pot.
(§12) For formulated compounds, a measured amount was placed in an individual 100 or 200 mL glass vial and was dissolved in a volume of 1.25% (v/v) Agri-Dex® crop oil concentrate to obtain application solutions.
(§13) For technical grade compounds, a weighed amount was placed in an individual 100 to 200 mL glass vial and was dissolved in a volume of acetone to obtain concentrated stock solutions. […] The concentrated stock solutions obtained were diluted with an equivalent volume of an aqueous mixture containing 2.5% (v/v) crop oil concentrate so that the final application solutions contained 1.25% (v/v) crop oil concentrate.
(§14) Applications were made by injecting with a pipetter appropriate amounts of the application solutions, individually and sequentially, into the aqueous layer of the paddy. Control plants were treated in the same manner with the solvent blank. Applications were made so that all treated plant material received the same concentrations of acetone and crop oil concentrate.
(§15) The treated plants and control plants were placed in a greenhouse as described above and water was added as needed to maintain a paddy flood. […]

IPOHE = experiment: Post-emergence foliar-applied weed control, greenhouse (Example I); type: in vivo, Ipomoea hederacea Jacq.; settings: 150 gai/ha
From the text: as §1, §2, §3, §4, §5, §6, §7, §8

CYPRO = experiment: In-water applied weed control, transplanted paddy rice, greenhouse (Example II); type: in vivo, Cyperus rotundus L.
Protocol: as §9, §10
as §3, with “(compound A)” for “(Compound A),”, “concentrate)” for “concentrate),”, “compound” for “Compound”
as §4, with “3.5% or technical material.” for “3.5%.”
as §11, §12, §13, §14, §15

SCPJU = experiment: as above; type: in vivo, Schoenoplectus juncoides (Roxb.) Palla
Protocol: as §9
as §10, with “Water was added on a regular basis to maintain the paddy flood, and supplemental lighting was provided with overhead metal halide 1000-Watt lamps as necessary. The plants were employed for testing when they reached the first through fourth true leaf stage.” left out
as §11
(§16) For formulated compounds, a measured amount was placed in an individual 100 or 200 mL glass vial and was dissolved in a volume of 1.25% (v/v) Agri-Dex® crop oil concentrate to obtain application solutions. […]

FIMMI = experiment: as above; type: in vivo, Fimbristylis miliacea (L.) Vahl
Protocol: as §9, §10
as §3, with “(compound A)” for “(Compound A),”, “concentrate)” for “concentrate),”, “compound” for “Compound”
as §4, with “3.5% or technical material.” for “3.5%.”
as §11, §12, §13, §14, §15

ECHCO = experiment: as above; type: in vivo, Echinochloa colona (L.) Link
Protocol: as §9, §10
as §3, with “(compound A)” for “(Compound A),”, “concentrate)” for “concentrate),”, “compound” for “Compound”, “basis. […]” for “basis.”
as §11, §16

ECHOR = experiment: as above; type: in vivo, Echinochloa oryzoides (Ard.) Fritsch
Protocol: as §9, §10
as §3, with “(compound A)” for “(Compound A),”, “concentrate)” for “concentrate),”, “compound” for “Compound”
as §4, with “3.5% or technical material.” for “3.5%.”
as §11, §12, §13, §14, §15

ECHCG [3] = experiment: as above; type: in vivo, Echinochloa crusgalli (L.) Beauv.
Protocol: as §9, §10
as §3, with “(compound A)” for “(Compound A),”, “concentrate)” for “concentrate),”, “compound” for “Compound”
as §4, with “3.5% or technical material.” for “3.5%.”
as §11, §12, §13, §14, §15

LEFCH [4] = experiment: as above; type: in vivo, Leptochloa chinensis (L.) Nees
Protocol: as §9, §10
as §3, with “(compound A)” for “(Compound A),”, “concentrate)” for “concentrate),”, “compound” for “Compound”
as §4, with “3.5% or technical material.” for “3.5%.”
as §11, §12, §13, §14, §15

Cc1ccc(S(=O)(=O)Oc2c(C(=O)c3ccc(Cl)cc3Cl)c(C)nn2C)cc1 [Pyrazolynate, (2,4-dichlorophenyl)[1,3-dimethyl-5-[[(4-methylphenyl)sulfonyl]oxy]-1H-pyrazol-4-yl]methanone, reference compound]
Visual Weed Control (%) - 22 DAA ECHCG Obs (ECHCG [1]; 37.5 gai/ha): 0%
Visual Weed Control (%) - 22 DAA ECHCG Obs (ECHCG [1]; 75 gai/ha): 0%
Visual Weed Control (%) - 21 DAA ECHCG Obs (ECHCG [1]; 150 gai/ha): 0%
Visual Weed Control (%) - 21 DAA LEFCH Obs (LEFCH [2]): 5%
Visual Weed Control (%) - 21 DAA SCPMA Obs (SCPMA): 0%
Visual Weed Control (%) - 21 DAA IPOHE Obs (IPOHE): 10%
Visual Weed Control (%) - 21 DAA CYPRO Obs (CYPRO; 37.5 gai/ha): 0%
Visual Weed Control (%) - 21 DAA CYPRO Obs (CYPRO; 75 gai/ha): 0%
Visual Weed Control (%) - 21 DAA SCPJU Obs (SCPJU; 37.5 gai/ha): 0%
Visual Weed Control (%) - 21 DAA SCPJU Obs (SCPJU; 75 gai/ha): 0%
Visual Weed Control (%) - 21 DAA FIMMI Obs (FIMMI; 37.5 gai/ha): 0%
Visual Weed Control (%) - 21 DAA FIMMI Obs (FIMMI; 75 gai/ha): 0%
Visual Weed Control (%) - 21 DAA ECHCO Obs (ECHCO; 37.5 gai/ha): 0%
Visual Weed Control (%) - 21 DAA ECHCO Obs (ECHCO; 75 gai/ha): 0%
Visual Weed Control (%) - 21 DAA ECHOR Obs (ECHOR; 37.5 gai/ha): 0%
Visual Weed Control (%) - 21 DAA ECHOR Obs (ECHOR; 75 gai/ha): 8%
Visual Weed Control (%) - 21 DAA ECHOR Obs (ECHOR; 150 gai/ha): 13%
Visual Weed Control (%) - 21 DAA ECHCG Obs (ECHCG [3]; 37.5 gai/ha): 0%
Visual Weed Control (%) - 21 DAA ECHCG Obs (ECHCG [3]; 75 gai/ha): 0%
Visual Weed Control (%) - 21 DAA LEFCH Obs (LEFCH [4]; 37.5 gai/ha): 0%
Visual Weed Control (%) - 21 DAA LEFCH Obs (LEFCH [4]; 75 gai/ha): 50%
